# Source: patent US12281122B1, “PI3K inhibitors” (Cogent Biosciences, Inc., priority 2023, dated 2025)
# Experiments:
# [1] = test system: SKBR3 (PI3Kα-Wild Type) cell line; test: HTRF phospho-AKT(S473) cell assay in SKBR3 cells; assay type: cell-based, human
# How it was run: (§1)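 Cells plated overnight (T47D in RPMI/10% FBS/0.2 units/mL insulin; SKBR3 in McCoy's 5A/10% FBS), then given 12-point 1:3 compound series (top 5 μM T47D, 10 μM SKBR3; ≤0.5% DMSO) for 2 h at 37° C. SKBR3 stimulated with 70 ng/ml PDGF-BB for final 15 min. Lysate pAKT(S473) by HTRF; IC50 calculated.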
# [2] = test system: T47D (PI3Kα-H1047R) cell line; test: HTRF phospho-AKT(S473) cell assay in T47D cells; assay type: cell-based, human
# How it was run: as §1
# [3] = Homo sapiens, SK-BR-3; SKBR3 (PI3Kα-Wild Type) cells, HTRF phospho-AKT(S473), 2 hours compound incubation, PDGF-BB stimulated
# [4] = Homo sapiens; T47D (PI3Kα-H1047R) cells, HTRF phospho-AKT(S473), 2 hours compound incubation
# [5] = Homo sapiens, SK-BR-3; HTRF phospho-AKT(S473), SKBR3 (PI3Kα-Wild Type) cells, 2 hours compound incubation, PDGF-BB stimulated
# [6] = Homo sapiens; HTRF phospho-AKT(S473), T47D (PI3Kα-H1047R) cells, 2 hours compound incubation
Compound,"IC50 [1, 3]","IC50 [2, 4]","IC50 [1, 5]","IC50 [2, 6]"
"Cc1cc([C@@H](C)Nc2ccc(Cl)nc2C(=O)NS(C)(=O)=O)c2nc(N3CCC(n4cc(C)cn4)CC3)n(C)c(=O)c2c1 [Compound 197, (R)-6-chloro-3-((1-(3,6-dimethyl-2-(4-(4-methyl-1H-pyrazol-1-yl)piperidin-1-yl)-4-oxo-3,4-dihydroquinazolin-8-yl)ethyl)amino)-N-(methylsulfonyl) picolinamide]",1000 to 5000 nM,< 250 nM,–,–
"Cc1cc([C@@H](C)Nc2ccc(Cl)nc2C(=O)NS(C)(=O)=O)c2nc(N3C[C@H]4C[C@@H]3CN4c3ccc(C#N)cn3)n(C)c(=O)c2c1 [Compound 601, 6-chloro-3-(((R)-1-(2-((1R,4R)-5-(5-cyanopyridin-2-yl)-2,5-diazabicyclo [2.2.1]heptan-2-yl)-3,6-dimethyl-4-oxo-3,4-dihydroquinazolin-8-yl)ethyl)amino)-N-(methylsulfonyl) picolinamide]",–,–,1000 to 5000 nM,250 to 500 nM
"Cc1cc([C@@H](C)Nc2ccc(Cl)nc2C(=O)NS(C)(=O)=O)c2nc(N3C[C@H]4C[C@@H]3CN4c3ccc(N)cn3)n(C)c(=O)c2c1 [Compound 597, 3-(((R)-1-(2-((1R,4R)-5-(5-aminopyridin-2-yl)-2,5-diazabicyclo [2.2.1]heptan-2-yl)-3,6-dimethyl-4-oxo-3,4-dihydroquinazolin-8-yl)ethyl)amino)-6-chloro-N-(methylsulfonyl) picolinamide]",–,–,≥ 5000 nM,1000 to 5000 nM
"COc1cc(C2CCN(c3nc4c([C@@H](C)Nc5ccc(Cl)nc5C(=O)NS(C)(=O)=O)cc(C)cc4c(=O)n3C)CC2)n(C)n1 [Compound 325, (R)-6-chloro-3-((1-(2-(4-(3-methoxy-1-methyl-1H-pyrazol-5-yl)piperidin-1-yl)-3,6-dimethyl-4-oxo-3,4-dihydroquinazolin-8-yl)ethyl)amino)-N-(methylsulfonyl) picolinamide]",1000 to 5000 nM,< 250 nM,–,–
"Cc1cc([C@@H](C)Nc2ccc(Cl)nc2C(=O)NS(C)(=O)=O)c2nc(N3C[C@@H]4[C@H](C3)[C@H]4n3cnc(C)n3)n(C)c(=O)c2c1 [Compound 566, 6-chloro-3-(((R)-1-(3,6-dimethyl-2-((1R,5S,6S)-6-(3-methyl-1H-1,2,4-triazol-1-yl)-3-azabicyclo[3.1.0]hexan-3-yl)-4-oxo-3,4-dihydroquinazolin-8-yl)ethyl)amino)-N-(methylsulfonyl) picolinamide]",–,–,1000 to 5000 nM,250 to 500 nM
"Cc1cc([C@@H](C)Nc2ccc(Cl)nc2C(=O)NS(C)(=O)=O)c2nc(N3C[C@H]4C[C@@H]3CN4c3cnn(C)c3)n(C)c(=O)c2c1 [Compound 233, 6-chloro-3-(((R)-1-(3,6-dimethyl-2-((1R,4R)-5-(1-methyl-1H-pyrazol-4-yl)-2,5-diazabicyclo[2.2.1]heptan-2-yl)-4-oxo-3,4-dihydroquinazolin-8-yl)ethyl)amino)-N-(methylsulfonyl) picolinamide]",1000 to 5000 nM,< 250 nM,–,–
"Cc1cc([C@@H](C)Nc2ccc(Cl)nc2C(=O)NS(C)(=O)=O)c2nc(N3Cc4nccnc4C3)n(C)c(=O)c2c1 [Compound 534, (R)-6-chloro-3-((1-(2-(5,7-dihydro-6H-pyrrolo[3,4-b]pyrazin-6-yl)-3,6-dimethyl-4-oxo-3,4-dihydroquinazolin-8-yl)ethyl)amino)-N-(methylsulfonyl) picolinamide]",–,–,1000 to 5000 nM,< 250 nM
"CCn1c(N2CCC(c3nc(C)n(C)n3)CC2)nc2c([C@@H](C)Nc3ccc(Cl)nc3C(=O)NS(C)(=O)=O)cc(C)cc2c1=O [Compound 616, (R)-6-chloro-3-((1-(2-(4-(1,5-dimethyl-1H-1,2,4-triazol-3-yl)piperidin-1-yl)-3-ethyl-6-methyl-4-oxo-3,4-dihydroquinazolin-8-yl)ethyl)amino)-N-(methylsulfonyl) picolinamide]",–,–,≥ 5000 nM,< 250 nM
"Cc1cc([C@@H](C)Nc2ccc(Cl)nc2C(=O)NS(C)(=O)=O)c2nc(N3C[C@@H]4[C@H](C3)[C@H]4n3cc(Cl)cn3)n(C)c(=O)c2c1 [Compound 583, 6-chloro-3-(((R)-1-(2-((1R,5S,6S)-6-(4-chloro-1H-pyrazol-1-yl)-3-azabicyclo[3.1.0]hexan-3-yl)-3,6-dimethyl-4-oxo-3,4-dihydroquinazolin-8-yl)ethyl)amino)-N-(methylsulfonyl) picolinamide]",–,–,≥ 5000 nM,250 to 500 nM

# Second part, the compound after the results:
"IC50 [1, 3]","IC50 [2, 4]","IC50 [1, 5]","IC50 [2, 6]",Compound
–,–,1000 to 5000 nM,< 250 nM,"Cc1cc([C@@H](C)Nc2ccc(Cl)nc2C(=O)NS(C)(=O)=O)c2nc(N3Cc4cn(Cc5ccccc5)nc4C3)n(C)c(=O)c2c1 [Compound 684, (R)-3-((1-(2-(2-benzyl-2,6-dihydropyrrolo[3,4-c]pyrazol-5(4H)-yl)-3,6-dimethyl-4-oxo-3,4-dihydroquinazolin-8-yl)ethyl)amino)-6-chloro-N-(methylsulfonyl) picolinamide]"
–,–,1000 to 5000 nM,250 to 500 nM,"Cc1cc([C@@H](C)Nc2ccc(Cl)nc2C(=O)NS(C)(=O)=O)c2nc(N3CC[C@@H](Oc4ccc(F)cn4)C3)n(C)c(=O)c2c1 [Compound 713, 6-chloro-3-(((R)-1-(2-((R)-3-((5-fluoropyridin-2-yl)oxy)pyrrolidin-1-yl)-3,6-dimethyl-4-oxo-3,4-dihydroquinazolin-8-yl)ethyl)amino)-N-(methylsulfonyl) picolinamide]"
–,–,≥ 5000 nM,250 to 500 nM,"Cc1cc([C@@H](C)Nc2ccc(Cl)nc2C(=O)NS(C)(=O)=O)c2nc(N3C[C@H]4C[C@@H]3C[C@H]4c3nn(C)cc3F)n(C)c(=O)c2c1 [Compound 766, 6-chloro-3-(((R)-1-(2-((1R,4S,5R)-5-(4-fluoro-1-methyl-1H-pyrazol-3-yl)-2-azabicyclo[2.2.1]heptan-2-yl)-3,6-dimethyl-4-oxo-3,4-dihydroquinazolin-8-yl)ethyl)amino)-N-(methylsulfonyl) picolinamide]"
–,–,1000 to 5000 nM,< 250 nM,"Cc1cc([C@@H](C)Nc2ccc(Cl)nc2C(=O)NS(C)(=O)=O)c2nc(-c3ccc(-c4ccn(C)n4)c(F)c3)n(C)c(=O)c2c1 [Compound 787, (R)-6-chloro-3-((1-(2-(3-fluoro-4-(1-methyl-1H-pyrazol-3-yl)phenyl)-3,6-dimethyl-4-oxo-3,4-dihydroquinazolin-8-yl)ethyl)amino)-N-(methylsulfonyl) picolinamide]"
–,–,1000 to 5000 nM,< 250 nM,"CCn1c(N2Cc3cn(CC(F)(F)F)nc3C2)nc2c([C@@H](C)Nc3ccc(Cl)nc3C(=O)NS(C)(=O)=O)cc(C)cc2c1=O [Compound 732, (R)-6-chloro-3-((1-(3-ethyl-6-methyl-4-oxo-2-(2-(2,2,2-trifluoroethyl)-2,6-dihydropyrrolo[3,4-c]pyrazol-5(4H)-yl)-3,4-dihydroquinazolin-8-yl)ethyl)amino)-N-(methylsulfonyl) picolinamide]"
–,–,≥ 5000 nM,250 to 500 nM,"Cc1cc([C@@H](C)Nc2ccc(Cl)nc2C(=O)NS(C)(=O)=O)c2nc(N3CCC[C@H](c4c[nH]nc4C)C3)n(C)c(=O)c2c1 (relative stereo) [Compound 703, 6-chloro-3-(((R)-1-(3,6-dimethyl-2-((R*)-3-(3-methyl-1H-pyrazol-4-yl)piperidin-1-yl)-4-oxo-3,4-dihydroquinazolin-8-yl)ethyl)amino)-N-(methylsulfonyl) picolinamide]"
